Measurements taken from ChEMBL document CHEMBL1130439, “Constrained analogues of 2-nor cyclic nucleoside monophosphates” (1997).

Key:
F2002 cell line [1] = test: The compound was tested for inhibitory activity against human cytomegalovirus (HCMV) in flow 2002 cells; assay type: functional; conditions: read-out: CD50 (the source's name)
F2002 cell line [2] = test: The compound was tested for inhibitory activity against human cytomegalovirus (HCMV) (WFl strain) in plaque reduction assay in flow 2002 cells; assay type: functional
MT4 [3] = test: Compound was tested against HIV-l (RF strain) in plaque reduction assay in MT-4 cells; no inhibition up to 100 ug/ml.; assay type: functional, cell-based; conditions: Homo sapiens
Vero [4] = test: Compound was tested against HSV-1 (KOS strain) in plaque reduction assay in Vero cells; no inhibition up to 100 ug/ml.; assay type: functional, cell-based; conditions: Chlorocebus sabaeus
Vero [5] = test: Compound was tested against HSV-2 (186 strain) in plaque reduction assay in Vero cells; no inhibition up to 100 ug/ml.; assay type: functional, cell-based; conditions: Chlorocebus sabaeus
F2002 cell line [6] = test: The compound was tested for inhibitory activity against human cytomegalovirus (HCMV) in flow 2002 cells; no inhibition up to 100 ug/ml.; assay type: functional, cell-based
MT4 [7] = test: Compound was tested against HIV-l (RF strain) in plaque reduction assay in MT-4 cells; no inhibition up to 100 ug/ml..; assay type: functional, cell-based; conditions: Homo sapiens

`N.Nc1nc2c(ncn2C2CSC3(COP(=O)(O)OC3)O2)c(=O)[nH]1` (stereo not given) was tested, and the CC50 (F2002 cell line [1]) was over 100 µg/mL, the PD50 (F2002 cell line [2]) was over 100 µg/mL and the Activity (MT4 [3]) was “No inhibition”. The Activity (Vero [4]) was “No inhibition” and the Activity (Vero [5]) was “No inhibition”.
In the case of `CC(=O)Nc1ccn(C2CSC(CO)(CO)O2)c(=O)n1` (stereo not given), the Activity (F2002 cell line [6]) was “No inhibition”.
`O=c1ccn(C2CSC3(COP(=O)(O)OC3)O2)c(=O)[nH]1` (stereo not given) was tested, and the CC50 (F2002 cell line [1]) was over 100 µg/mL, the PD50 (F2002 cell line [2]) was 2.5 µg/mL and the Activity (MT4 [7]) was “No inhibition”. For the same molecule, the Activity (Vero [4]) was “No inhibition” and the Activity (Vero [5]) was “No inhibition”.
Molecule `Nc1nc2c(ncn2COC(CO)CO)c(=O)[nH]1` [GANCICLOVIR] has a CC50 (F2002 cell line [1]) of over 100 µg/mL and a PD50 (F2002 cell line [2]) of 0.1 µg/mL.
For `N.Nc1ccn(C2CSC3(COP(=O)(O)OC3)O2)c(=O)n1` (stereo not given), the CC50 (F2002 cell line [1]) was over 100 µg/mL, the PD50 (F2002 cell line [2]) was 11 µg/mL and the Activity (MT4 [3]) was “No inhibition”. The Activity (Vero [4]) was “No inhibition” and the Activity (Vero [5]) was “No inhibition”.
With `CC(=O)Nc1nc(=O)n(C2CSC(CO)(CO)O2)cc1Br` (stereo not given) the Activity (F2002 cell line [6]) was “No inhibition”.
With `O=c1ccn(C2CSC(CO)(CO)O2)c(=O)[nH]1` (stereo not given) the Activity (F2002 cell line [6]) was “No inhibition”.
`Nc1nc(=O)n(C2CSC3(COP(=O)(O)OC3)O2)cc1F` (stereo not given) was tested, and the CC50 (F2002 cell line [1]) was over 100 µg/mL, the PD50 (F2002 cell line [2]) was over 100 µg/mL and the Activity (MT4 [3]) was “No inhibition”. The Activity (Vero [4]) was “No inhibition” and the Activity (Vero [5]) was “No inhibition”.
In the case of `Cc1cn(C2CSC3(COP(=O)(O)OC3)O2)c(=O)[nH]c1=O` (stereo not given), the CC50 (F2002 cell line [1]) was over 100 µg/mL, the PD50 (F2002 cell line [2]) was over 100 µg/mL and the Activity (MT4 [3]) was “No inhibition”. For the same molecule, the Activity (Vero [4]) was “No inhibition” and the Activity (Vero [5]) was “No inhibition”.
For `Nc1nc(=O)n(C2CSC3(COP(=O)(O)OC3)O2)cc1Br` (stereo not given), the CC50 (F2002 cell line [1]) was over 100 µg/mL, the PD50 (F2002 cell line [2]) was 2.5 µg/mL and the Activity (MT4 [3]) was “No inhibition”. For the same molecule, the Activity (Vero [4]) was “No inhibition” and the Activity (Vero [5]) was “No inhibition”.
